Test results reported in patent US6610709B1, “2-n-substituted or unsubstituted-2-amino-5-methylpiperidine-3,4-diols and processes for the preparation thereof” (Zaidan Hojin Biseibutsu Kagaku Kenkyu Kai, priority 1999, dated 2003).

Columns and labels:
[1] = biological target: T1, α-L-fucosidase (from bovine liver) (Bos taurus, UniProt Q2KIM0); test: α-fucosidase-inhibitory activity assay (Test Example 1); type: biochemical; details: substrate p-nitrophenyl α-L-fucopyranoside, citrate-phosphate buffer pH 6.3, 37° C., 60 minutes, read-out: 50% Inhibiory Concentration (IC50) Enzyme A (converted)
T1 construct: a product of Sigma Company, originated from bovine liver; purchased Sigma; host or cells: bovine liver
T1 sequence (Q2KIM0 23-468): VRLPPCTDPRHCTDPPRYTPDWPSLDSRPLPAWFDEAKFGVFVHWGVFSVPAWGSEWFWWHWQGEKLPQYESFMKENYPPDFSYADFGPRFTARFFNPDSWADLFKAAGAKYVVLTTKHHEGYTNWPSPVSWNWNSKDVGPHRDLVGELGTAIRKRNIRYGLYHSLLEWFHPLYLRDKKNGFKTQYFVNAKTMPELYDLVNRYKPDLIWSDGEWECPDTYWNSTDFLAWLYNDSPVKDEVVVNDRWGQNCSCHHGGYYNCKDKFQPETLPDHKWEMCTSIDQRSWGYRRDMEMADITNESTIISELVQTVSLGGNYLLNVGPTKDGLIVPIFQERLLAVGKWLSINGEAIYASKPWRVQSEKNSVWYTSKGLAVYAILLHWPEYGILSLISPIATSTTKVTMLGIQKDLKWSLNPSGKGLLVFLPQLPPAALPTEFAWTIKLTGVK
Method: This Test Example is a test example for determining the α-fucosidase-inhibitory activity of the compound of the general formula (I) according to this invention.
Assay of the α-fucosidase-inhibitory activity was conducted according to a modification of the method described in the “Journal of Biological Chemistry”, 252, pp.5194-5200 (1977).
(§1) Thus, 0.5 mL of 0.025M citrate-phosphate buffer (pH 6.3), 0.1 mL of the same buffer containing 1.5 mM p-nitrophenyl α-L-fucopyranoside dissolved therein, and 0.1 mL of either water or an aqueous solution containing as the tested compound any one of the compounds of the formulae (Ia), (Ib), (Ic) and (Id) according to this invention were mixed with each other and pre-incubated in a 96-well titer plate at 37° C. for 10 minutes. After the completion of the pre-incubation, to the pre-incubated mixture was added 0.01 mL of 0.025M citrate-phosphate buffer containing α-L-fucosidase (a product of Sigma Company, originated from bovine liver) dissolved therein, and thereafter the enzymatic reaction was conducted at 37° C. for 60 minutes. After the enzymatic reaction, to the resulting reaction solution was added 1.0 mL of 0.2M glycine-sodium hydroxide buffer (pH 10.5), in order to terminate the enzymatic reaction. Thereafter, the absorbance (designated as “a”) of light at 405 nm of the resulting reaction solution was measured. Concurrently, measurement was made of the absorbance (designated as “b”) of light at 405 nm of the reaction solution as obtained in the control test where the enzymatic reaction was conducted without addition of the test compound. Further, measurements were made of the absorbance (designated as “a′”) and the absorbance (designated as “b′”) of light at 405 nm of the reaction solutions as obtained in the blank tests where the enzymatic reaction had not been conducted in the assay test, and also in the control test for the blank tests, respectively.
(§2) The rate of inhibition to α-L-fucosidase was calculated by the equation: […]

[2] = biological target: β-D-glucosidase (from almonds); test: β-glucosidase-inhibitory activity assay (Test Example 2); type: biochemical, almond; details: substrate p-nitrophenyl β-D-glucoside, same manner as Test Example 1
Method: as §1, §2
This Test Example is a test example for determining the α-glucosidase or β-glucosidase-inhibitory activity of the compounds according to this invention.
The evaluation of the α- or β-glucosidase-inhibitory activity was conducted according to a modification of the method described in the “Agricultural and Biological Chemistry”, 26, p.203 (1962). Namely, the test was conducted in the same manner as the test for the enzyme-inhibitory activity described in Test Example 1, except that either α-glucosidase originated from yeast, or β-glucosidase originated from almond (both enzymes are products of Sigma Company) was used as the glycosidase enzyme, and that p-nitrophenyl α-D-glucoside or p-nitrophenyl β-D-glucoside was used as the substrate. Furthermore, the enzyme-inhibitory activity was measured in the same manner as in Test Example 1, and the 50% inhibitions of the tested compounds against the enzymes were calculated, respectively.

SMILES	IC50 [1] [µM]	50% Inhibiory Concentration (IC50) Enzyme C [2] [mg/L]
CC(=O)N[C@@H]1NC[C@@H](C)[C@@H](O)[C@H]1O [Compound of the Formula (Ia), (2S,3S,4R,5R)-2-acetamido-5-methylpiperidine-3,4-diol]	0.584	2.3
C[C@@H]1CN[C@@H](NC(=O)C(Cl)(Cl)Cl)[C@H](O)[C@@H]1O [Compound of the Formula (Ic), (2S,3S,4R,5R)-2-trichloroacetamido-5-methyl-piperidine-3,4-diol]	0.0103	50

The remaining lines, values ahead:

IC50 [1] [µM]	50% Inhibiory Concentration (IC50) Enzyme C [2] [mg/L]	SMILES
0.0145	60	C[C@@H]1CN[C@@H](N2C(=O)c3ccccc3C2=O)[C@H](O)[C@@H]1O [Compound of the Formula (Id), (2S,3S,4R,5R)-2-phthalimido-5-methylpiperidine-3,4-diol]
0.0205	50	C[C@@H]1CN[C@@H](N)[C@H](O)[C@@H]1O [Compound of the Formula (Ie), (2R,3S,4R,5R)-2-amino-5-methylpiperidine-3,4-diol]
0.0124	55	C[C@@H]1CN[C@@H](NC(=O)C(F)(F)F)[C@H](O)[C@@H]1O [Compound of the Formula (Ib), (2S,3S,4R,5R)-2-trifluoroacetamido-5-methyl-piperidine-3,4-diol]
